Assay results published in ChEMBL document CHEMBL1201862, “PubChem BioAssay data set” (2004).
Calls of active or inactive are those of the source.

Columns and labels:
[1] = biological target: G-protein coupled receptor 55 (Homo sapiens, UniProt Q9Y2T6); test: GPR55 agonists via beta-arrestin recruitment, primary screen, imaging, U2OS cells, beta-arrestin-GFP redistribution (AID 1961); type: functional
[2] = biological target: T1, Dual specificity protein phosphatase 3 (Homo sapiens, UniProt P51452); test: VHR1 phosphatase inhibitors, primary screen, biochemical, absorbance, uHTS (AID 1654)
[3] = biological target: T1, Dual specificity protein phosphatase 3; test: VHR1 phosphatase inhibitors, biochemical (AID 1878)
[4] = biological target: DNA dC->dU-editing enzyme APOBEC-3G (Homo sapiens, UniProt Q9HC16); test: Dose Response confirmation of small molecule APOBEC3G DNA Deaminase Inhibitors via a fluorescence-based single-stranded DNA deaminase assay. [Related pubchem assays (depositor defined):AID493012, AID493028]; type: functional
[5] = biological target: T2, Tyrosine-protein phosphatase non-receptor type 11 (Homo sapiens, UniProt Q06124); test: SHP2 phosphatase inhibition, dose response, selectivity assay for STEP inhibitor project, biochemical (AID 602367); type: functional; settings: read-out: IC50_Mean
T2 sequence (Q06124 whole entry): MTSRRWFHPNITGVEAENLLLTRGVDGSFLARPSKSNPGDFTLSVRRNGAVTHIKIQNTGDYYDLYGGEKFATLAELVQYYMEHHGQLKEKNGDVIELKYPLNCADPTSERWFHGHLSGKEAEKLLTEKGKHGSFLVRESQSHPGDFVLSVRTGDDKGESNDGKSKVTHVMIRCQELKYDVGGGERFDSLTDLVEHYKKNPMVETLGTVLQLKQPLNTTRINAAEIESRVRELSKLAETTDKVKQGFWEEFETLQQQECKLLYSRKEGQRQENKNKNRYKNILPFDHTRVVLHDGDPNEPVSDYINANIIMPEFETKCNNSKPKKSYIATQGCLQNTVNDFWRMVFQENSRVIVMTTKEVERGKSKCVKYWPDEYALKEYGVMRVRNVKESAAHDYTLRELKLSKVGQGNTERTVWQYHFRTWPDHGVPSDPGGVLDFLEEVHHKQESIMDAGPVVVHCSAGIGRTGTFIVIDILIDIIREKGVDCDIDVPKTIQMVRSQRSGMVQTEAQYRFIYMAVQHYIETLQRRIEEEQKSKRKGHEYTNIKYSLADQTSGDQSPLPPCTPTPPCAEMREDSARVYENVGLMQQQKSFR

[6] = biological target: T3, Tyrosine-protein phosphatase non-receptor type 22 (Homo sapiens, UniProt Q9Y2R2); test: PTPN22 phosphatase inhibition, dose response, selectivity assay for STEP inhibitor project, biochemical (AID 624241); type: functional
T3 sequence (Q9Y2R2 whole entry): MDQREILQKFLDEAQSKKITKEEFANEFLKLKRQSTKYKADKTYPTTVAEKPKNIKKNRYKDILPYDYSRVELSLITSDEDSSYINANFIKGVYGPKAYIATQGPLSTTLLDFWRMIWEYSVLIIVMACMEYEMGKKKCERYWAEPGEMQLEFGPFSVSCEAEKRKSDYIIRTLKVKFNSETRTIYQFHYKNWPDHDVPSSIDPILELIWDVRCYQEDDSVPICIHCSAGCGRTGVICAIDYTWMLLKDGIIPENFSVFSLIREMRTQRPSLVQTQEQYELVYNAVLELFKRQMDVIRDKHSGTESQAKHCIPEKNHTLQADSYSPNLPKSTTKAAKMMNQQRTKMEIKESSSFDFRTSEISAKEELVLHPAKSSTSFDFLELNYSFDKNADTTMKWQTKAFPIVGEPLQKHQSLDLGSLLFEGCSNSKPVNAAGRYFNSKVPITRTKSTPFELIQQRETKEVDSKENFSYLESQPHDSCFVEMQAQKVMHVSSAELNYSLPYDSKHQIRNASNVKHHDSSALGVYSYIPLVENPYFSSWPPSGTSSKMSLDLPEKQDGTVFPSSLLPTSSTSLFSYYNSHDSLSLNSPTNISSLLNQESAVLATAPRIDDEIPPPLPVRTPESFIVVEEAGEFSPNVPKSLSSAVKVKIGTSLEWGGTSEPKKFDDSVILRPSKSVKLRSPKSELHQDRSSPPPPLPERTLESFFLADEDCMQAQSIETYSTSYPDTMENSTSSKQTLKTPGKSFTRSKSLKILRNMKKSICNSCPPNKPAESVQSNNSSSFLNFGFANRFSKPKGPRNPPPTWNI

[7] = biological target: T1, Dual specificity protein phosphatase 3; test: VHR phosphatase inhibition, dose response, selectivity assay for STEP inhibitor project, biochemical (AID 602374); type: functional; settings: read-out: IC50_Mean
[8] = biological target: T4, Dual specificity protein phosphatase 6 (Rattus norvegicus, UniProt Q64346); test: MKP-3 phosphatase inhibitors, primary screen, biochemical, rat enzyme, in vitro (AID 425)
T4 sequence (Q64346 whole entry): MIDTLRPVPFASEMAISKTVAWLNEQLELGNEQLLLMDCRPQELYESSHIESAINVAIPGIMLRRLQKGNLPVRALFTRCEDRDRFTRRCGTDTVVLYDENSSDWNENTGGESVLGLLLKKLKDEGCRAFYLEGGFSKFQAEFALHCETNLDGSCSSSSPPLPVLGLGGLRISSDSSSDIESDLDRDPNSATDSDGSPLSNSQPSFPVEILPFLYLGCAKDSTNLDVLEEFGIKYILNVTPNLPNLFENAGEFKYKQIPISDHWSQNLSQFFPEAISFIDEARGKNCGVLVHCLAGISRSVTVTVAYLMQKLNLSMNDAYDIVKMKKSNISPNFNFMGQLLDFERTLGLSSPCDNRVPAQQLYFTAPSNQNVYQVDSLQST

[9] = biological target: T5, Tyrosine-protein phosphatase non-receptor type 5 (Homo sapiens, UniProt P54829); test: STEP phosphatase inhibitors, confirmation, biochemical, fluorescence intensity, uHTS hits (AID 602372); type: functional; settings: read-out: IC50_Mean
T5 sequence (P54829 whole entry): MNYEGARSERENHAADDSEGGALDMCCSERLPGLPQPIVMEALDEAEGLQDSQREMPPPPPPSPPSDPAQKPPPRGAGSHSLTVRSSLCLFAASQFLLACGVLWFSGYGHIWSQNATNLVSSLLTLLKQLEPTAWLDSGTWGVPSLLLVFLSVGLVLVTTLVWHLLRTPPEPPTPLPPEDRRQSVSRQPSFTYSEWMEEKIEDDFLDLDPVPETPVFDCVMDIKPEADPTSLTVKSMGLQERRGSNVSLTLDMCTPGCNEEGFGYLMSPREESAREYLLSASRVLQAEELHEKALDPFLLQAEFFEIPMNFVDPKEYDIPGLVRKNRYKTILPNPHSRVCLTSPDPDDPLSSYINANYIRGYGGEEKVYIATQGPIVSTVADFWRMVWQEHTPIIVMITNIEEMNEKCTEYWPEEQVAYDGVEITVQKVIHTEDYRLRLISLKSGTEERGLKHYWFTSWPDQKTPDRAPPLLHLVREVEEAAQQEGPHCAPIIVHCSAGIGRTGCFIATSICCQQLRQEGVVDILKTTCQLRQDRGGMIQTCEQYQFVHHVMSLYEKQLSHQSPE

[10] = biological target: DNA dC->dU-editing enzyme APOBEC-3A (Homo sapiens, UniProt P31941); test: APOBEC3A DNA deaminase inhibitors, dose response, biochemical (AID 504722); type: functional
[11] = biological target: Glucose-6-phosphate 1-dehydrogenase (Homo sapiens, UniProt P11413); test: human G6PD enzyme inhibitors, dose response, selectivity assay for P. falciparum G6PD inhibitor project, biochemical, fluorescence (AID 504792); type: functional
Sequence of Glucose-6-phosphate 1-dehydrogenase (P11413 whole entry): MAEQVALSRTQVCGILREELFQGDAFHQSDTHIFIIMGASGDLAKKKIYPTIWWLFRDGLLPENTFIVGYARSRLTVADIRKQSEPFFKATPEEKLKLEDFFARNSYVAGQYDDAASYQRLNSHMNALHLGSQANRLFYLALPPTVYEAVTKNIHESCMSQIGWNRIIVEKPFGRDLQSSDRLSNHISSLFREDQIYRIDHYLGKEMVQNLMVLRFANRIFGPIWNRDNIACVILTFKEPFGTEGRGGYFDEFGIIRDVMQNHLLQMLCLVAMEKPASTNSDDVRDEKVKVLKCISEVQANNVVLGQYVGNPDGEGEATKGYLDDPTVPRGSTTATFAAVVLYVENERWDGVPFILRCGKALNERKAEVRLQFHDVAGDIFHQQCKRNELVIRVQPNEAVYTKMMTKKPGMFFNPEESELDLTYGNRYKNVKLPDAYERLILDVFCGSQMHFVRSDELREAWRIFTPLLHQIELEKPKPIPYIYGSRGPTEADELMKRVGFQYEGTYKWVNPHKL

T1 sequence (P51452 whole entry): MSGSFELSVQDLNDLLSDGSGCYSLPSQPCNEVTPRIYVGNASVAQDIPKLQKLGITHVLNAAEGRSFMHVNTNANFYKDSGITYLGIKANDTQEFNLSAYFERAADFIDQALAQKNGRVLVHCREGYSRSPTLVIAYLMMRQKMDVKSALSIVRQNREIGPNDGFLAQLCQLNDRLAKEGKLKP
Sequence of DNA dC->dU-editing enzyme APOBEC-3A (P31941 whole entry): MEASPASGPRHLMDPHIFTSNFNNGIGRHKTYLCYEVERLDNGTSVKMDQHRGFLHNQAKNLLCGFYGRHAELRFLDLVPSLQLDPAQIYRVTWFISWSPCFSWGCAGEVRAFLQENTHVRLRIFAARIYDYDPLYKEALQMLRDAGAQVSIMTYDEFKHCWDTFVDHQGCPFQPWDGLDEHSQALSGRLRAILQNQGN
Sequence of G-protein coupled receptor 55 (Q9Y2T6 whole entry): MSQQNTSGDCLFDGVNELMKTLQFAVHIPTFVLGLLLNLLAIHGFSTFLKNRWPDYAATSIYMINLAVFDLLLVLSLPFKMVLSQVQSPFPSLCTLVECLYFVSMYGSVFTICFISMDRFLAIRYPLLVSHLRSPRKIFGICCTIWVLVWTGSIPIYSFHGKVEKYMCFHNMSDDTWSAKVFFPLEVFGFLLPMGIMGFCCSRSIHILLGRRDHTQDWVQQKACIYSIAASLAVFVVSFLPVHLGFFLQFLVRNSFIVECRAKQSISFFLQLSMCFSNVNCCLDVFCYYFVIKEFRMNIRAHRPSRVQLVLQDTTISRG
Sequence of DNA dC->dU-editing enzyme APOBEC-3G (Q9HC16 whole entry): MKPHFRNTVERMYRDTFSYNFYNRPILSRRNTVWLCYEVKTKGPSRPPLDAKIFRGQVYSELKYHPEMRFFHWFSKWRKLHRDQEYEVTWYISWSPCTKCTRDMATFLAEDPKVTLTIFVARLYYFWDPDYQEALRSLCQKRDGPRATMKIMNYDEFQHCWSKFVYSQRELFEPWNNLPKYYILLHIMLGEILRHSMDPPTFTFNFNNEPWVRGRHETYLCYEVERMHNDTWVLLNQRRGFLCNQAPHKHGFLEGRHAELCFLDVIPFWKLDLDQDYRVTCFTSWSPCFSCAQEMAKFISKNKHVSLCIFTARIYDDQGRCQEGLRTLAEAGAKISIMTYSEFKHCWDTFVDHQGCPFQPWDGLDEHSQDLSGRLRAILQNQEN

Cc1cc2ncn(-c3nnnn3-c3ccccc3)c2cc1C
EC50 [1]: 20 µM (inactive)

CN1CCN(C(=S)C(=O)Nc2ccc(Br)cc2)CC1
IC50 [2]: 4 µM (active) | IC50 [3]: 8.52 µM (active) | IC50 [4]: 5.11 µM (active) | IC50 [5]: 0.431 µM (active) | IC50 [6]: 9.73 µM (active) | IC50 [7]: 0.386 µM (active) | IC50 [8]: > 158 µM (not active) | IC50 [9]: 6.57 µM (active) | IC50 [10]: > 100 µM (inactive) | IC50 [11]: > 80 µM (inactive)
